Experimental data published in article PMC5564600 (Oncotarget, 2017).

Experiments:
Experiment in all cases: biochemical
Assay type in all cases: binding
panel of 442 kinases [1] = molecular target: T1, panel of 442 kinases (Homo sapiens, UniProt Q08881); conditions: kinase ITK; for remaining activity at 1 µM: read-out: % of control at 1 µM
T1 construct: purchased Ambit Biosciences (scanMAXX KINOMEscan)
T1 sequence (Q08881 1-620): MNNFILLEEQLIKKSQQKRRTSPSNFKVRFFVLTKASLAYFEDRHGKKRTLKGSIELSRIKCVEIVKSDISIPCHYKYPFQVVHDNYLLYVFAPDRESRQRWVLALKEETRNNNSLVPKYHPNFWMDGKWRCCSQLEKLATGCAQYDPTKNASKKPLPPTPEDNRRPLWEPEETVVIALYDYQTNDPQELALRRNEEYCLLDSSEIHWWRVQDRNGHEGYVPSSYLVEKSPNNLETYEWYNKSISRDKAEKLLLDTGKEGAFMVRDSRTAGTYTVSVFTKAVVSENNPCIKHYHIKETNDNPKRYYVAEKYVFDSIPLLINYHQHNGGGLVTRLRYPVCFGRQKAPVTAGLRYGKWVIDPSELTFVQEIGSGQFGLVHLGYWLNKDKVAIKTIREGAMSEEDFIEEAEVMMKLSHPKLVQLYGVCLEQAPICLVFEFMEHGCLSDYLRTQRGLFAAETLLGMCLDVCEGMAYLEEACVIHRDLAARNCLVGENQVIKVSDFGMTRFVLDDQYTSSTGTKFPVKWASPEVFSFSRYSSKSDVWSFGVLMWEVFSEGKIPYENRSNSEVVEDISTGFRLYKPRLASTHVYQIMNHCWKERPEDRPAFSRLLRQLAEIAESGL

panel of 442 kinases [2] = molecular target: T2, panel of 442 kinases (Homo sapiens, UniProt O75116); conditions: kinase ROCK2; for remaining activity at 1 µM: read-out: ROCK2 (% of control at 1 µM)
T2 construct: purchased Ambit Biosciences (scanMAXX KINOMEscan)
T2 sequence (O75116 whole entry): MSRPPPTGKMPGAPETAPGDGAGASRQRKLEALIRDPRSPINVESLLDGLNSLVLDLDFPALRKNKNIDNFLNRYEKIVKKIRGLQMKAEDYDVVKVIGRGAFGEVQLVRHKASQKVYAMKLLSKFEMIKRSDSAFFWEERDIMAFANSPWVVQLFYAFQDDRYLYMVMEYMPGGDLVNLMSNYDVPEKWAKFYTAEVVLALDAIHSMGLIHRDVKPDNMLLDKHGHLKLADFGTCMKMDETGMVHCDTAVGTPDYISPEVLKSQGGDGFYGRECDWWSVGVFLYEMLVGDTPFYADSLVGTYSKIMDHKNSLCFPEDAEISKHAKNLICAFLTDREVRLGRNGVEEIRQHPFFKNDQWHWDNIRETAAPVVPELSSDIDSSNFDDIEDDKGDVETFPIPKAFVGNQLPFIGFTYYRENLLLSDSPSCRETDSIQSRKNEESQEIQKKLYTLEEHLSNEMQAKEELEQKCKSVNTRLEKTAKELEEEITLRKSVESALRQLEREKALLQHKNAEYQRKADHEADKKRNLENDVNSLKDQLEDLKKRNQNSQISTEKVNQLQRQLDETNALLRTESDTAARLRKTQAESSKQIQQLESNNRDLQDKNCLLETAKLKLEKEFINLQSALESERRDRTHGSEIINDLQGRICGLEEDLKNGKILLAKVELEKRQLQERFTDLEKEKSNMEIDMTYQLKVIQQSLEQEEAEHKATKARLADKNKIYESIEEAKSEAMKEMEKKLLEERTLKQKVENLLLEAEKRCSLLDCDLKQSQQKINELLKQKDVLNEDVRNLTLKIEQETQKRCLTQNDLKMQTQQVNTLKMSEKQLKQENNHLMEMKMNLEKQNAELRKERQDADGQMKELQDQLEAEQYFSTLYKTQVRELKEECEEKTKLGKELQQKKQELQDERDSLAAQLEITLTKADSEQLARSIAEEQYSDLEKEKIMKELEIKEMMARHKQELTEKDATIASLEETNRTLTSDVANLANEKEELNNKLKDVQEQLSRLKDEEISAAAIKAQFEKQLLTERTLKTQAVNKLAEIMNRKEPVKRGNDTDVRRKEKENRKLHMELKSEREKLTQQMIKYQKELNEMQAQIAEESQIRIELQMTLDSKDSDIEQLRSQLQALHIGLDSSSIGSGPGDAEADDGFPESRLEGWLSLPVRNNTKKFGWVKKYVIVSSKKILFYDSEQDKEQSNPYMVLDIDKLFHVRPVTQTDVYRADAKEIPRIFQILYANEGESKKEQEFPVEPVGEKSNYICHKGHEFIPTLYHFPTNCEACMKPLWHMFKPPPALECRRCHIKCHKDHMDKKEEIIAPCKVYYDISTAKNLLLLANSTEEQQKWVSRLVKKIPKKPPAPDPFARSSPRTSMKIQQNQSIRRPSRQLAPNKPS

panel of 442 kinases [3] = molecular target: T3, panel of 442 kinases (Homo sapiens, UniProt Q92630); conditions: DYRK2; for remaining activity at 1 µM: read-out: % of control at 1 µM
T3 construct: purchased Ambit Biosciences (scanMAXX KINOMEscan)
T3 sequence (Q92630 1-601): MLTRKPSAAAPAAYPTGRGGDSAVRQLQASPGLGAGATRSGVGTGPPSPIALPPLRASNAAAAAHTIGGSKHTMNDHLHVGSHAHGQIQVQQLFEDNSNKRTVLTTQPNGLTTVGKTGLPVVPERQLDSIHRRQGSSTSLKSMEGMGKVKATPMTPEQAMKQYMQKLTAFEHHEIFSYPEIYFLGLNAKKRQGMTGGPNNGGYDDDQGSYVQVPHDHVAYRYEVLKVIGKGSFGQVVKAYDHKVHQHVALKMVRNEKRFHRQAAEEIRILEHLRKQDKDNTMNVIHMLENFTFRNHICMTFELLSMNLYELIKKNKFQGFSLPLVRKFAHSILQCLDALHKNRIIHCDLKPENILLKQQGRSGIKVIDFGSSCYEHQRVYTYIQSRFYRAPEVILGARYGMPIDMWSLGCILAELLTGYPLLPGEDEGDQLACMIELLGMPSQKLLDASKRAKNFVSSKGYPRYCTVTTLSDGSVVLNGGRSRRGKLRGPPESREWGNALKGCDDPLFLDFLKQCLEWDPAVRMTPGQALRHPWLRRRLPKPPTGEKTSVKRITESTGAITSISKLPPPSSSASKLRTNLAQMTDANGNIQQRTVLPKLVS

panel of 442 kinases [4] = molecular target: T4, panel of 442 kinases (Homo sapiens, UniProt Q86UE8); conditions: kinase TLK2; for remaining activity at 1 µM: read-out: TLK2 (% of control at 1 µM)
T4 construct: purchased Ambit Biosciences (scanMAXX KINOMEscan)
T4 sequence (Q86UE8 whole entry): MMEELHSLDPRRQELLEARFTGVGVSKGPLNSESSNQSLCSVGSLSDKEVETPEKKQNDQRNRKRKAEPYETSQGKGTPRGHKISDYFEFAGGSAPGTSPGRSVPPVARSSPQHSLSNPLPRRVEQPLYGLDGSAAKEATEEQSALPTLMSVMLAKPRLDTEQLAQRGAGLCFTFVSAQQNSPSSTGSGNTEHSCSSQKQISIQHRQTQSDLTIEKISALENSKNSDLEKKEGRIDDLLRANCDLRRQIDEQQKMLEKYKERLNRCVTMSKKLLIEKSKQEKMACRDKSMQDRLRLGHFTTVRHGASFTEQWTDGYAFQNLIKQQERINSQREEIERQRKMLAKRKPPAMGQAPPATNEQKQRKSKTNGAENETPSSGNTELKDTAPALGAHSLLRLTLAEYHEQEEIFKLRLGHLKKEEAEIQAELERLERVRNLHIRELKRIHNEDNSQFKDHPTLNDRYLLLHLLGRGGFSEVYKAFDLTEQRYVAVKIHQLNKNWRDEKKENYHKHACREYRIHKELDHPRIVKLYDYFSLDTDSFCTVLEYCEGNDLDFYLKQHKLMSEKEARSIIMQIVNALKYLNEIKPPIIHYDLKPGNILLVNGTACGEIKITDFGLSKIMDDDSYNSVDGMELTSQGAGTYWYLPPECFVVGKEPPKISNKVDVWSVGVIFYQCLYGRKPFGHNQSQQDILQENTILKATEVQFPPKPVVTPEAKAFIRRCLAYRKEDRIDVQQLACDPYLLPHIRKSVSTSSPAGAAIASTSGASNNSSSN

panel of 442 kinases [5] = molecular target: T5, panel of 442 kinases (Homo sapiens, UniProt P08922); conditions: kinase ROS1; for remaining activity at 1 µM: read-out: ROS1 (% of control at 1 µM)
T5 construct: purchased Ambit Biosciences (scanMAXX KINOMEscan)
T5 sequence (P08922 28-2347): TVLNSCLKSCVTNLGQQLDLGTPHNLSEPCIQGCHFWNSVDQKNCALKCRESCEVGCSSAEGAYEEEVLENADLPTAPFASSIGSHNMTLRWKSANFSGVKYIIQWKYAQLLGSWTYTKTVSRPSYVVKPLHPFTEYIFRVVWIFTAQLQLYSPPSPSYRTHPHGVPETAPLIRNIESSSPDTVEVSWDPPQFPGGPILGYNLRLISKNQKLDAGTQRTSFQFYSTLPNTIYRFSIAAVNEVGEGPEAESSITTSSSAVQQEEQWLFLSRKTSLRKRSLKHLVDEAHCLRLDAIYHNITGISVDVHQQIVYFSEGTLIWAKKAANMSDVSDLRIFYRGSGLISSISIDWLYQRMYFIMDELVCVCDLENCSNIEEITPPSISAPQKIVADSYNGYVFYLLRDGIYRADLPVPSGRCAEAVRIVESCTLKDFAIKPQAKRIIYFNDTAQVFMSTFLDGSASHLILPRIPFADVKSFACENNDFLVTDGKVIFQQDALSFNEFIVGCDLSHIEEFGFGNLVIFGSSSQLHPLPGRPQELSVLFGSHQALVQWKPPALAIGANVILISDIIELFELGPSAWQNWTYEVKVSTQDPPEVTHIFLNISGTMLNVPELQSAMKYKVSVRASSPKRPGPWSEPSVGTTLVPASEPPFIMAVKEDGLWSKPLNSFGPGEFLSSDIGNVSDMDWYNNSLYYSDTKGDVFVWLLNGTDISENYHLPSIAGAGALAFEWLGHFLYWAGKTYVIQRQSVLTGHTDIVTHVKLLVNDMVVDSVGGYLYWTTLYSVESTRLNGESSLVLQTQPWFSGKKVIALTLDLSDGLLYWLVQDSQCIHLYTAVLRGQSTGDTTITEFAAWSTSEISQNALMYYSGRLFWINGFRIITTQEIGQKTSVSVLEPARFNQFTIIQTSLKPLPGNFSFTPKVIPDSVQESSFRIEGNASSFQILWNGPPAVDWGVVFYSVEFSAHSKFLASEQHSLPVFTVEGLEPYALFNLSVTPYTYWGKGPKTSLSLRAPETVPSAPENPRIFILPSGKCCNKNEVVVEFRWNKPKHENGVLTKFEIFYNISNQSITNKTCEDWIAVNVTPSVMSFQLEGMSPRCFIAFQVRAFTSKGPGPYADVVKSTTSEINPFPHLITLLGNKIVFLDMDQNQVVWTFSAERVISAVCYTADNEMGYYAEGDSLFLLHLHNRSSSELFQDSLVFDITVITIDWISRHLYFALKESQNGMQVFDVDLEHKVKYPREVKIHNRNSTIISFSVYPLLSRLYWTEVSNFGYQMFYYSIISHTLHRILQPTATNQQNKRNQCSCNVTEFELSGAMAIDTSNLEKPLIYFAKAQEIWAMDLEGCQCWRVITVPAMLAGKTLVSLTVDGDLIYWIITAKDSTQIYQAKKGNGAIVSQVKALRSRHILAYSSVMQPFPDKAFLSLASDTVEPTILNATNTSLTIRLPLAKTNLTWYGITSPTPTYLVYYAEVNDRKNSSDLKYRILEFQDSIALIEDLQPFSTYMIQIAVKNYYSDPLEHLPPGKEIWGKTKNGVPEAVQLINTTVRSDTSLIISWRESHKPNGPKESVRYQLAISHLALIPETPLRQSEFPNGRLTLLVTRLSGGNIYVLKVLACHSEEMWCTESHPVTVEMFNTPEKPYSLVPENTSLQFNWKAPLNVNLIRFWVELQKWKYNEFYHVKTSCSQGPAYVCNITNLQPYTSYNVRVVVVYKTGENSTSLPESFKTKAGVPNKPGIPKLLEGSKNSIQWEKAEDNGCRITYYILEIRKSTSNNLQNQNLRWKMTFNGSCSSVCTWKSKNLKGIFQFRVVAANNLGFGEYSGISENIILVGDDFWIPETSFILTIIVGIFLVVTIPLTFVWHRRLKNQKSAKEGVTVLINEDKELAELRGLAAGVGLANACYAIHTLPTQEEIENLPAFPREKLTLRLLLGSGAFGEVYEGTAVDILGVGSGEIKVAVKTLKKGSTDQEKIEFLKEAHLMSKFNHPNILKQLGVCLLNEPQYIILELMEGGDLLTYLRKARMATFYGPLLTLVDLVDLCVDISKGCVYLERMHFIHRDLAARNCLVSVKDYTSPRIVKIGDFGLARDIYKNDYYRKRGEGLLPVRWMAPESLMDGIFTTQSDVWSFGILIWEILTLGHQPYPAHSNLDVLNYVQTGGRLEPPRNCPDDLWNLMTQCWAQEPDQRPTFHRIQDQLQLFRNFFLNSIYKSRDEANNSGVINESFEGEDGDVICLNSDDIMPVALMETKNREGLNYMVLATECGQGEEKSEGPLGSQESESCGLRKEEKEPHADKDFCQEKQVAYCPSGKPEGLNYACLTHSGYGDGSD

panel of 442 kinases [6] = molecular target: T6, panel of 442 kinases (Homo sapiens, UniProt P11309); conditions: kinase PIM1; for remaining activity at 1 µM: read-out: % of control at 1 µM
T6 construct: purchased Ambit Biosciences (scanMAXX KINOMEscan)

panel of 442 kinases [7] = molecular target: T7, panel of 442 kinases (Homo sapiens, UniProt Q9UBE8); conditions: kinase NLK; for remaining activity at 1 µM: read-out: % of control at 1 µM
T7 construct: purchased Ambit Biosciences (scanMAXX KINOMEscan)
T7 sequence (Q9UBE8 1-527): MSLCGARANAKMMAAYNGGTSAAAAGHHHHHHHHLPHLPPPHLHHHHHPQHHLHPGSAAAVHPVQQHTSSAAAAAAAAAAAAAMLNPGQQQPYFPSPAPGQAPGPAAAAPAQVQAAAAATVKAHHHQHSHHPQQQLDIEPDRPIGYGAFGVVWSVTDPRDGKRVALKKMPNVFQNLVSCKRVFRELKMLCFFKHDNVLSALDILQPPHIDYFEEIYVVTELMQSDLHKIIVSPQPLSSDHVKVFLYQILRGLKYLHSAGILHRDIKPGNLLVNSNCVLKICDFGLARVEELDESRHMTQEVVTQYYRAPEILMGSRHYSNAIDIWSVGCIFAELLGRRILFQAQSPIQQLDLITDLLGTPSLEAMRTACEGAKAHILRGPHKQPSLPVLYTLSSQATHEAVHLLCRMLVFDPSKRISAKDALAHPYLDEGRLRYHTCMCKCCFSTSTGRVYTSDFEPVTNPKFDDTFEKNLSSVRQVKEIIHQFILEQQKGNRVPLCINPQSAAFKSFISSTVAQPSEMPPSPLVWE

panel of 442 kinases [8] = molecular target: T8, panel of 442 kinases (Homo sapiens, UniProt Q6PHR2); conditions: kinase ULK3; for remaining activity at 1 µM: read-out: ULK3 (% of control at 1 µM)
T8 construct: purchased Ambit Biosciences (scanMAXX KINOMEscan)
T8 sequence (Q6PHR2 1-472): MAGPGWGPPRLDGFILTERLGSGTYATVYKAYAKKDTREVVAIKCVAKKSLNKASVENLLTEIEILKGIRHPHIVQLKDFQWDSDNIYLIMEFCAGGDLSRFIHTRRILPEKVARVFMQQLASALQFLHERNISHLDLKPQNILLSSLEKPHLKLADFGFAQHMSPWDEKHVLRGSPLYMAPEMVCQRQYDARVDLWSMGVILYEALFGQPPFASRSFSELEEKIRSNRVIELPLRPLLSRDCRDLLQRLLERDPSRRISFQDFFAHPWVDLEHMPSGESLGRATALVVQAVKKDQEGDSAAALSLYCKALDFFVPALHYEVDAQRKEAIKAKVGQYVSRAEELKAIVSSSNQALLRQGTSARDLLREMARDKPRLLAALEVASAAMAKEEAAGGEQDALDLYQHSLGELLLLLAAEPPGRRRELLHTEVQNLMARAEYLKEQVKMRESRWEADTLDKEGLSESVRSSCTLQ

panel of 442 kinases [9] = molecular target: T9, panel of 442 kinases (Homo sapiens, UniProt Q13177); conditions: kinase PAK2; for remaining activity at 1 µM: read-out: % of control at 1 µM
T9 construct: purchased Ambit Biosciences (scanMAXX KINOMEscan)
T9 sequence (Q13177 whole entry): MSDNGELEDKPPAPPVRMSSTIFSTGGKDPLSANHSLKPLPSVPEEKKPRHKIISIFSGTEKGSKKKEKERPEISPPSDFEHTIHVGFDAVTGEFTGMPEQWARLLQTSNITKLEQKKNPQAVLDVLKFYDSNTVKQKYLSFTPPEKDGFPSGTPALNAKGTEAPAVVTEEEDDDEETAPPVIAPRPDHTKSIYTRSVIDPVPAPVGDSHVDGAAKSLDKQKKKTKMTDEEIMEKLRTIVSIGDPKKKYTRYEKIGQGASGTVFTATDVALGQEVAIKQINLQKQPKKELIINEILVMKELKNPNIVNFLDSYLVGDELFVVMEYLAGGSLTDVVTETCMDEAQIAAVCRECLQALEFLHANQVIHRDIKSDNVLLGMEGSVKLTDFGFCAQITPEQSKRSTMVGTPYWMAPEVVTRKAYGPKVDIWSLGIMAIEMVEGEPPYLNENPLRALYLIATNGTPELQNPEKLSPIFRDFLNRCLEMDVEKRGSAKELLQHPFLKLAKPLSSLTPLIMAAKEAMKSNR

[10] = 10 µM, read-out: % of control at 10 µM

SMILES	remaining activity at 1 µM (panel of 442 kinases [1]) [%]	remaining activity at 10 µM (panel of 442 kinases [1]; [10]) [%]	remaining activity at 1 µM (panel of 442 kinases [2]) [%]	remaining activity at 10 µM (panel of 442 kinases [2]; 10 µM, read-out: ROCK2 (% of control at 10 µM)) [%]	remaining activity at 1 µM (panel of 442 kinases [3]) [%]	remaining activity at 10 µM (panel of 442 kinases [3]; [10]) [%]	remaining activity at 1 µM (panel of 442 kinases [4]) [%]	remaining activity at 10 µM (panel of 442 kinases [4]; 10 µM, read-out: TLK2 (% of control at 10 µM)) [%]	remaining activity at 1 µM (panel of 442 kinases [5]) [%]	remaining activity at 10 µM (panel of 442 kinases [5]; 10 µM, read-out: ROS1 (% of control at 10 µM)) [%]	remaining activity at 1 µM (panel of 442 kinases [6]) [%]	remaining activity at 10 µM (panel of 442 kinases [6]; [10]) [%]	remaining activity at 1 µM (panel of 442 kinases [7]) [%]	remaining activity at 10 µM (panel of 442 kinases [7]; [10]) [%]	remaining activity at 1 µM (panel of 442 kinases [8]) [%]	remaining activity at 10 µM (panel of 442 kinases [8]; 10 µM, read-out: ULK3 (% of control at 10 µM)) [%]	remaining activity at 1 µM (panel of 442 kinases [9]) [%]	remaining activity at 10 µM (panel of 442 kinases [9]; [10]) [%]
Nc1cc(C(F)(F)F)c(-c2cc(N3CCOCC3)nc(N3CCOCC3)n2)cn1 [Buparlisib]	100	100	100	89	80	100	100	100	84	79	87	100	93	100	100	100	68	83
Cn1c(=O)n(-c2ccc(C(C)(C)C#N)cc2)c2c3cc(-c4cnc5ccccc5c4)ccc3ncc21 [Dactolisib, 2-methyl-2-[4-(3-methyl-2-oxo-8-quinolin-3-yl-2,3-dihydroimidazo[4,5-c]quinolin-1-yl)-phenyl] propionitrile]	91		60		67		93		100		100		81		100			
COc1ncc(-c2ccc3nccc(-c4ccnnc4)c3c2)cc1NS(=O)(=O)c1ccc(F)cc1F [Omipalisib]	86		89		88		100		100		100		95		100		57	
FC(F)c1nc2ccccc2n1-c1nc(N2CCOCC2)nc(N2CCOCC2)n1 [ZSTK474, 2-(difluoromethyl)-1-[4,6-di(4-morpholinyl)-1,3,5-triazin-2-yl]-1H-benzimidazole]	97		86		78		100		100		100		84		97		100	
